Read-outs that look alike come from different tables or passages of the source.
Experiments:
[1] = tested on: HeLa cervical and MCF-7 breast adenocarcinomas; assay: In vitro growth inhibition (MTT); format: cell-based, human; conditions: HeLa and MCF-7
Text: (§1) This finding led to an exploration of the SAR analyses by synthesizing the first generation compounds 3 containing diverse substituents at different positions in the 2-aryl-2-(3-indolyl)acetohydroxamate skeleton and testing this series for in vitro growth inhibition using the MTT colorimetric assay against two cell lines, human HeLa cervical and MCF-7 breast adenocarcinomas (Table 1). It emerged from these experiments that the substitution on the benzene ring of the indole moiety (R^2≠H) was not tolerated (e.g., 3abfa and 3acfa), whereas the nitrogen could be derivatized (R^1≠H) with only a small activity drop (e.g., 3bafa vs 3aafa).
(§2) Antiproliferative properties of the synthesized compounds were evaluated by the MTT assay. All compounds were dissolved in DMSO at a concentration of either 100 mM or 50 mM prior to cell treatment. The cells were trypsinized and seeded at 4×10^3 cells per well into 96-well plates. The cells were grown for 24 h, treated with compounds at concentrations ranging from 0.001 to 100 μM and incubated for 48 h in 200 μL media. 20 μL of MTT reagent in serum free medium (5 mg/mL) was added to each well and incubated further for 2 h. Media was removed and the resulting formazan crystals were re-solubilized in 200 μL of DMSO. A490 was measured using a Molecular Devices Thermomax plate reader. The experiments were performed in quadruplicate and repeated at least twice for each compound per cell line. Cells treated with 0.1% DMSO were used as a negative control; 1 μM phenyl arsine oxide (PAO) was used as a positive control.

[2] = tested on: HeLa cervical adenocarcinoma cells; assay: MTT antiproliferative assay, HeLa; format: cell-based; conditions: Homo sapiens, ± SD, read-out: cell viability GI50, HeLa
Text: as §1
(§3) Human cancer cell lines were obtained from the American Type Culture Collection (ATCC, Manassas, Va., USA), the European Collection of Cell Culture (ECACC, Salisbury, UK) and the Deutsche Sammlung von Mikroorganismen and Zellkulturen (DSMZ, Braunschweig, Germany). Human cervical adenocarcinoma HeLa cells were cultured in DMEM supplemented with 10% fetal bovine serum (FBS). Human mammary carcinoma MCF-7 cells were cultured in RPMI supplemented with 10% FBS. The U87 cells (ATCC HTB-14) were cultured in DMEM culture medium, while the A549 cells (DSMZ ACC107) were cultured in RPMI culture medium supplemented with 10% heat-inactivated FBS. The glioblastoma multiforme Hs683 (ATCC HTB-138) and the T98G (ATCC CRL-1690) cell lines were cultivated in DMEM supplemented with 10% FBS. The Human uterine sarcoma MES-SA and MES-SA/Dx5 cells were cultured in RPMI-1640 medium supplemented with 10% FBS with MES SA/Dx5 maintained in the presence of 500 nM Doxorubicin (Sigma). SKMEL-28 cells (ATCC HTB72) and U373 glioblastoma cells (ECACC 08061901) were cultured in RPMI culture medium supplemented with 10% heat-inactivated FBS. Cell culture media were supplemented with 4 mM glutamine (Lonza code BE17-605E), 100 μg/mL gentamicin (Lonza code 17-5182), and penicillin-streptomycin (200 units/ml and 200 μg/ml) (Lonza code 17-602E). Neurosphere culture GBM 031810 was established using known methods and maintained in Neurobasal medium (Invitrogen Carlsbad, Calif.) with B27 supplement (20 ul/ml; Invitrogen), Glutamax (10 ul/ml; Invitrogen), fibroblast growth factor-2 (20 ng/ml; Peprotech, Rocky Hill, N.J., USA), epidermal growth factor (20 ng/ml; Peprotech), heparin (32 IE/ml; Sigma Aldrich, St. Louis, Mo.), and penicillin-streptomycin (1×, Invitrogen). Growth factors and heparin were renewed twice weekly. All cell lines were cultured in T25 flasks, maintained and grown at 37° C., 95% humidity, 5% CO2.
as §2

[3] = tested on: MCF-7 breast adenocarcinoma cells; assay: MTT antiproliferative assay, MCF-7; format: cell-based; conditions: Homo sapiens, ± SD, read-out: cell viability GI50, MCF7
Text: as §1, §3, §2

[4] = tested on: A549 non-small-cell-lung cancer cells; assay: MTT antiproliferative assay, A549; format: cell-based, human; conditions: FIG. 3; concentrations up to 100 μM
Experimental: (§4) As part of the ongoing efforts aimed at identification of compounds active against cancer cells displaying resistance to proapoptotic agents, the selected 2-aryl-2-(3-indolyl)-acetohydroxamates were evaluated for in vitro growth inhibition against a panel of additional cancer cell lines including those resistant to various proapoptotic stimuli, such as human T98G and U87 glioblastoma and human A549 non-small-cell-lung cancer (NSCLC), as well as an apoptosis-sensitive tumor model, such as human Hs683 anaplastic oligodendroglioma, used as a reference. The data reveal that for the most part these compounds retain the single-digit antiproliferatve GI50 values in this challenging cancer cell panel.
as §3, §2

[5] = tested on: U87 glioblastoma cells; assay: MTT antiproliferative assay, U87; format: cell-based, human; conditions: FIG. 3; concentrations up to 100 μM
Experimental: as §4, §3, §2

[6] = tested on: MES-SA uterine sarcoma cells; assay: MTT antiproliferative assay, MES-SA; format: cell-based; conditions: Homo sapiens, 48 h treatment, ± SD, read-out: GI50 in vitro, MES-SA
Experimental: Compared with the intrinsic drug resistance, as described above for such cancers as glioblastoma and melanoma, a large variety of tumors can also develop resistance to anticancer drugs resulting in MDR as explained previously. To assess whether the hydroxamates can overcome this resistance mechanism, selected hydroxamates were tested against MDR cells (Table 4). The MDR uterine sarcoma cell line MES-SA/Dx5 was utilized for this experiment. This cell line was established from the parent uterine sarcoma MES-SA, grown in the presence of increasing concentrations of doxorubicin and known to be resistant to a number of P-gp substrates. […] In contrast, there was only a small variation in the sensitivities of the two cell lines towards the hydroxamates indicating their potential to overcome clinical multi-drug resistance.
as §3, §2

[7] = tested on: MES-SA/Dx5 MDR uterine sarcoma cells; assay: MTT antiproliferative assay, MDR MES-SA/Dx5; format: cell-based, human
Experimental: Compared with the intrinsic drug resistance, as described above for such cancers as glioblastoma and melanoma, a large variety of tumors can also develop resistance to anticancer drugs resulting in MDR as explained previously. To assess whether the hydroxamates can overcome this resistance mechanism, selected hydroxamates were tested against MDR cells (Table 4). The MDR uterine sarcoma cell line MES-SA/Dx5 was utilized for this experiment. This cell line was established from the parent uterine sarcoma MES-SA, grown in the presence of increasing concentrations of doxorubicin and known to be resistant to a number of P-gp substrates.
as §3, §2
Selection of the MES-SA/Dx5 cell line was done according to W. G. Harker and B. I. Sikic, Cancer Res. 1985, p. 45, 4091. The cells were split and allowed to adhere overnight. […] The cells were maintained at this DOX concentration until their growth rate reached that of the untreated cells.

| GI50 ([2]; Table 1, 48 h treatment) | GI50 ([3]; MCF7, Table 1, 48 h treatment) | GI50 ([2]; Table 2, 48 h treatment) | GI50 ([3]; MCF7, Table 2, 48 h treatment) | SMILES | also measured |
| --- | --- | --- | --- | --- | --- |
|  |  | 6.3 ± 1.3 µM | 4.9 ± 0.2 µM | Cc1ccc(C(C(=O)NO)c2c(-c3ccc4ccccc4c3)[nH]c3ccccc23)cc1 (centres unmarked) [Compound 3aafm] | antiproliferative potency (GI50) [1]: single-digit micromolar |
|  |  | 6.9 ± 0.4 µM | 7.4 ± 0.6 µM | Cc1cccc(C(C(=O)NO)c2c(-c3ccc4ccccc4c3)[nH]c3ccccc23)c1 (centres unmarked) [Compound 3aafn] | antiproliferative potency (GI50) [1]: single-digit micromolar |
|  |  | 4.1 ± 0.2 µM | 7.9 ± 0.7 µM | CCN(CC)c1ccc(C(C(=O)NO)c2c(-c3ccc4ccccc4c3)[nH]c3ccccc23)cc1 (centres unmarked) [Compound 3aafo] | antiproliferative potency (GI50) [1]: single-digit micromolar |
| > 50 µM | > 50 µM |  |  | Cc1ccc2[nH]c(-c3ccc4ccccc4c3)c(C(C(=O)NO)c3ccccc3)c2c1 (centres unmarked) [Compound 3abfa] |  |
| > 50 µM | > 50 µM |  |  | COc1ccc2[nH]c(-c3ccc4ccccc4c3)c(C(C(=O)NO)c3ccccc3)c2c1 (centres unmarked) [Compound 3acfa] |  |
| 19.7 ± 1.7 µM | 10 ± 0.3 µM |  |  | Cn1c(-c2ccc3ccccc3c2)c(C(C(=O)NO)c2ccccc2)c2ccccc21 (centres unmarked) [Compound 3bafa] |  |
| 36.8 ± 0.4 µM | 25.7 ± 1.4 µM |  |  | Cn1c(-c2ccc3ccccc3c2)c(C(C(=O)NO)c2cccc(F)c2)c2ccccc21 (centres unmarked) [Compound 3bafc] |  |
| 24 ± 0.2 µM | 11.2 ± 0.9 µM |  |  | Cn1c(-c2ccc3ccccc3c2)c(C(C(=O)NO)c2ccccc2Br)c2ccccc21 (centres unmarked) [Compound 3bafd] |  |
|  |  | 6.6 ± 0.5 µM | 7.7 ± 0.4 µM | CCCCn1c(-c2ccc3ccccc3c2)c(C(C(=O)NO)c2ccc(C(C)C)cc2)c2ccccc21 (centres unmarked) [Compound 3cafe] | antiproliferative potency (GI50) [1]: single-digit micromolar |
|  |  | 9.8 ± 0.8 µM | 9.3 ± 0.3 µM | CCC(C)n1c(-c2ccc3ccccc3c2)c(C(C(=O)NO)c2ccccc2)c2ccccc21 (centres unmarked) [Compound 3dafa] | antiproliferative potency (GI50) [1]: single-digit micromolar |

The remaining lines, values behind:

| SMILES | GI50 ([2]; Table 1, 48 h treatment) | GI50 ([3]; MCF7, Table 1, 48 h treatment) | GI50 ([2]; Table 2, 48 h treatment) | GI50 ([3]; MCF7, Table 2, 48 h treatment) | also measured |
| --- | --- | --- | --- | --- | --- |
| O=C(NO)C(c1ccccc1)c1c(-c2ccccc2)[nH]c2ccccc12 (centres unmarked) [Compound 3aaaa] | 23 ± 2.6 µM | 31 ± 0.6 µM |  |  | antiproliferative potency (GI50) [1]: double-digit micromolar |
| O=C(NO)C(c1ccc([N+](=O)[O-])cc1)c1c(-c2ccccc2)[nH]c2ccccc12 (centres unmarked) [Compound 3aaab] | > 50 µM | > 50 µM |  |  |  |
| O=C(NO)C(c1ccccc1)c1c(-c2ccccc2[N+](=O)[O-])[nH]c2ccccc12 (centres unmarked) [Compound 3aaba] | > 50 µM | > 50 µM |  |  |  |
| COc1ccc(-c2[nH]c3ccccc3c2C(C(=O)NO)c2ccccc2)cc1 (centres unmarked) [Compound 3aaca] | > 50 µM | > 50 µM |  |  |  |
| Cc1[nH]c2ccccc2c1C(C(=O)NO)c1ccccc1 (centres unmarked) [Compound 3aada] | > 50 µM | > 50 µM |  |  |  |
| O=C(NO)C(c1ccccc1)c1c(-c2cccc3ccccc23)[nH]c2ccccc12 (centres unmarked) [Compound 3aaea] | 25.7 ± 1.6 µM | 32 ± 0.9 µM |  |  |  |
| O=C(NO)C(c1cccc(F)c1)c1c(-c2ccc3ccccc3c2)[nH]c2ccccc12 (centres unmarked) [Compound 3aafc] |  |  | 32.9 ± 1.1 µM | 20.4 ± 0.1 µM |  |
| O=C(NO)C(c1ccccc1Br)c1c(-c2ccc3ccccc3c2)[nH]c2ccccc12 (centres unmarked) [Compound 3aafd] |  |  | 13 ± 0.4 µM | 2.7 µM |  |
| COc1ccc(C(C(=O)NO)c2c(-c3ccc4ccccc4c3)[nH]c3ccccc23)cc1OC (centres unmarked) [Compound 3aaff] |  |  | 26.9 ± 0.3 µM | 2.4 ± 0.1 µM |  |
| O=C(NO)C(c1ccc(F)cc1)c1c(-c2ccc3ccccc3c2)[nH]c2ccccc12 (centres unmarked) [Compound 3aafg] |  |  | 18.2 ± 0.9 µM | 6.3 ± 1.1 µM |  |
| O=C(NO)C(c1ccccc1Cl)c1c(-c2ccc3ccccc3c2)[nH]c2ccccc12 (centres unmarked) [Compound 3aafh] |  |  | 31 ± 0.2 µM | 4.9 ± 0.1 µM |  |
| O=C(NO)C(c1ccc(Cl)c(Cl)c1)c1c(-c2ccc3ccccc3c2)[nH]c2ccccc12 (centres unmarked) [Compound 3aafi] |  |  | 31.7 ± 1.7 µM | 12.2 ± 1 µM |  |
| O=C(NO)C(c1ccc(OC(F)(F)F)cc1)c1c(-c2ccc3ccccc3c2)[nH]c2ccccc12 (centres unmarked) [Compound 3aafj] |  |  | 27.4 ± 0.2 µM | 10.2 ± 0.1 µM |  |
| CCOc1ccc(C(C(=O)NO)c2c(-c3ccc4ccccc4c3)[nH]c3ccccc23)cc1 (centres unmarked) [Compound 3aafl] |  |  | 17.3 ± 0.2 µM | 8.5 ± 0.3 µM |  |
| CC(=O)O[C@H]1C(=O)[C@@]2(C)[C@H]([C@H](OC(=O)c3ccccc3)[C@]3(O)C[C@H](OC(=O)[C@H](O)[C@@H](NC(=O)c4ccccc4)c4ccccc4)C(C)=C1C3(C)C)[C@]1(OC(C)=O)CO[C@@H]1C[C@@H]2O [Taxol, reference compound] |  |  |  |  | cells whose proliferation is not affected, A549 [4]: ca. 50%; cells whose proliferation is not affected, U87 [5]: ca. 50%; GI50 [6]: 0.007 ± 0.001 µM |
| CC[C@]1(O)C[C@@H]2CN(CCc3c([nH]c4ccccc34)[C@@](C(=O)OC)(c3cc4c(cc3OC)N(C)[C@H]3[C@@](O)(C(=O)OC)[C@H](OC(C)=O)[C@]5(CC)C=CCN6CC[C@]43[C@@H]65)C2)C1 [Vinblastine, reference compound] |  |  |  |  | GI50 [6]: 0.006 ± 0.001 µM; GI50 ([7]; Homo sapiens, MES-SA/Dx5, 48 h treatment, MTT, ± SD, MDR line, read-out: GI50 in vitro, MES-SA/Dx5): 5 ± 1.4 µM; change in potency, MDR MES-SA/Dx5 versus parent MES-SA ([7]; MDR line compared with parent line): more than a thousand fold drop in potency |
| COc1cc([C@@H]2c3cc4c(cc3[C@H](O)[C@H]3COC(=O)[C@H]23)OCO4)cc(OC)c1OC [podophyllotoxin, reference compound] |  |  |  |  | cells whose proliferation is not affected, A549 [4]: ca. 50%; cells whose proliferation is not affected, U87 [5]: ca. 50% |

Source: patent US9206124B2, “Treatment of drug-resistant cancer with 2-aryl-2-(3-indolyl) acetohydroxamates” (New Mexico Technical Research Foundation, priority 2013, dated 2015)
